Experimental data taken from article PMC5218480 (PLoS ONE, 2017).

System: MV-4-11 cells
Test: Gene expression microarray analysis (Affymetrix PrimeView) and GSEA
Type: cell-based, human
Design: RFU PODN (11730768_x_at) / Fold change /veh PODN (11730768_x_at) / RFU LINC00158 (11744669_a_at) / Fold change /veh LINC00158 (11744669_a_at) / RFU DUSP10 (11751237_a_at) / Fold change /veh DUSP10 (11751237_a_at) / RFU ID3 (11757404_x_at) / Fold change /veh ID3 (11757404_x_at) / RFU PLEKHG5 (11737974_s_at) / Fold change /veh PLEKHG5 (11737974_s_at) / RFU LRRC4B (11730491_at) / Fold change /veh LRRC4B (11730491_at) / RFU GIMAP4 (11747438_a_at) / Fold change /veh GIMAP4 (11747438_a_at) / RFU KRT8 (11758183_x_at) / Fold change /veh KRT8 (11758183_x_at) / RFU CNN1 (11734310_a_at) / Fold change /veh CNN1 (11734310_a_at) / RFU VPS37D (11726825_at) / Fold change /veh VPS37D (11726825_at) / RFU C10orf10 (11716522_x_at) / Fold change /veh C10orf10 (11716522_x_at) / RFU KIR2DL2 /// KIR2DL4 /// KIR2DL5A /// KIR2DL5B /// KIR2DS1 /// KIR2DS2 /// KIR2DS3 /// KIR2DS4 /// KIR3DL3 /// KIR3DL3 /// KIR3DS1 (11738374_at) / Fold change /veh KIR2DL2 /// KIR2DL4 /// KIR2DL5A /// KIR2DL5B /// KIR2DS1 /// KIR2DS2 /// KIR2DS3 /// KIR2DS4 /// KIR3DL3 /// KIR3DL3 /// KIR3DS1 (11738374_at) / RFU C1QL1 (11718748_at) / Fold change /veh C1QL1 (11718748_at) / RFU TMPRSS4 (11747572_a_at) / Fold change /veh TMPRSS4 (11747572_a_at) / RFU HAMP (11756126_x_at) / Fold change /veh HAMP (11756126_x_at) / RFU RNFT2 (11725882_a_at) / Fold change /veh RNFT2 (11725882_a_at) / RFU NR4A2 (11747474_a_at) / Fold change /veh NR4A2 (11747474_a_at) / RFU ABCC12 (11746883_a_at) / Fold change /veh ABCC12 (11746883_a_at) / RFU TMEM136 (11760407_x_at) / Fold change /veh TMEM136 (11760407_x_at) / RFU CLDN22 /// WWC2 (11732394_at) / Fold change /veh CLDN22 /// WWC2 (11732394_at) / RFU HLA-DPB1 (11760878_x_at) / Fold change /veh HLA-DPB1 (11760878_x_at) / RFU SPINT1 (11716480_a_at) / Fold change /veh SPINT1 (11716480_a_at) / RFU GAP43 (11754022_s_at) / Fold change /veh GAP43 (11754022_s_at) / RFU A4GNT (11735810_at) / Fold change /veh A4GNT (11735810_at) / RFU PRB3 (11715151_x_at) / Fold change /veh PRB3 (11715151_x_at) / RFU TUBB4B (11761932_at) / Fold change /veh TUBB4B (11761932_at) / RFU CAPN14 (11732068_a_at) / Fold change /veh CAPN14 (11732068_a_at) / RFU TMCC2 (11721928_a_at) / Fold change /veh TMCC2 (11721928_a_at) / RFU IRGQ (11745062_a_at) / Fold change /veh IRGQ (11745062_a_at) / RFU FAM174B (11720279_a_at) / Fold change /veh FAM174B (11720279_a_at) / RFU TMPRSS4 (11748680_a_at) / Fold change /veh TMPRSS4 (11748680_a_at) / RFU FAM212B (11763350_a_at) / Fold change /veh FAM212B (11763350_a_at) / RFU PLEKHG5 (11743358_a_at) / Fold change /veh PLEKHG5 (11743358_a_at) / RFU ZSCAN30 (11745921_a_at) / Fold change /veh ZSCAN30 (11745921_a_at) / RFU CMKLR1 (11741424_a_at) / Fold change /veh CMKLR1 (11741424_a_at) / RFU LOC101060620 /// MAPK8IP1 (11723275_at) / Fold change /veh LOC101060620 /// MAPK8IP1 (11723275_at) / RFU SPTSSB (11747773_x_at) / Fold change /veh SPTSSB (11747773_x_at) / RFU PRSS12 (11739890_at) / Fold change /veh PRSS12 (11739890_at) / RFU BIN1 (11741810_x_at) / Fold change /veh BIN1 (11741810_x_at) / RFU WNT11 (11732464_a_at) / Fold change /veh WNT11 (11732464_a_at) / RFU C10orf10 (11716521_a_at) / Fold change /veh C10orf10 (11716521_a_at) / RFU C5orf56 (11738089_at) / Fold change /veh C5orf56 (11738089_at) / RFU CYB561 (11721691_x_at) / Fold change /veh CYB561 (11721691_x_at) / RFU ANKRD19P (11752326_a_at) / Fold change /veh ANKRD19P (11752326_a_at) / RFU OR2T12 /// OR2T33 /// OR2T8 (11738714_s_at) / Fold change /veh OR2T12 /// OR2T33 /// OR2T8 (11738714_s_at) / RFU VCAN (11748164_a_at) / Fold change /veh VCAN (11748164_a_at) / RFU JSRP1 (11732532_at) / Fold change /veh JSRP1 (11732532_at) / RFU KRTAP10-11 (11738290_x_at) / Fold change /veh KRTAP10-11 (11738290_x_at) / RFU MYO3A (11730013_a_at) / Fold change /veh MYO3A (11730013_a_at) / RFU EBF3 (11725865_a_at) / Fold change /veh EBF3 (11725865_a_at) / RFU CAMK2N1 (11719241_x_at) / Fold change /veh CAMK2N1 (11719241_x_at) / RFU C5orf56 (11738088_a_at) / Fold change /veh C5orf56 (11738088_a_at) / RFU OLFML3 (11715873_a_at) / Fold change /veh OLFML3 (11715873_a_at) / RFU LOC100653217 /// NTM (11731650_a_at) / Fold change /veh LOC100653217 /// NTM (11731650_a_at) / RFU MAPK11 (11762145_a_at) / Fold change /veh MAPK11 (11762145_a_at) / RFU FIZ1 (11724087_x_at) / Fold change /veh FIZ1 (11724087_x_at) / RFU OASL (11726364_x_at) / Fold change /veh OASL (11726364_x_at) / RFU SOX15 (11748057_x_at) / Fold change /veh SOX15 (11748057_x_at) / RFU CD79A (11719716_a_at) / Fold change /veh CD79A (11719716_a_at) / RFU HIST1H1D (11736915_at) / Fold change /veh HIST1H1D (11736915_at) / RFU CASKIN2 (11723855_a_at) / Fold change /veh CASKIN2 (11723855_a_at) / RFU LOC730098 (11760151_x_at) / Fold change /veh LOC730098 (11760151_x_at) / RFU OR4N2 (11742367_at) / Fold change /veh OR4N2 (11742367_at) / RFU PRRT2 (11749266_a_at) / Fold change /veh PRRT2 (11749266_a_at) / RFU SNX32 (11753110_a_at) / Fold change /veh SNX32 (11753110_a_at) / RFU CDHR5 (11726645_a_at) / Fold change /veh CDHR5 (11726645_a_at) / RFU RCAN1 (11760418_a_at) / Fold change /veh RCAN1 (11760418_a_at) / RFU FAM167A (11723789_a_at) / Fold change /veh FAM167A (11723789_a_at) / RFU FAM26E (11764081_at) / Fold change /veh FAM26E (11764081_at) / RFU ISYNA1 (11749810_s_at) / Fold change /veh ISYNA1 (11749810_s_at) / RFU ACY1 (11761880_at) / Fold change /veh ACY1 (11761880_at) / RFU 11764098_at / Fold change /veh 11764098_at / RFU SAMD14 (11745864_x_at) / Fold change /veh SAMD14 (11745864_x_at) / RFU NPB (11741838_a_at) / Fold change /veh NPB (11741838_a_at) / RFU TMPRSS6 (11731388_a_at) / Fold change /veh TMPRSS6 (11731388_a_at) / RFU KRTAP10-2 (11738614_at) / Fold change /veh KRTAP10-2 (11738614_at) / RFU ARHGAP8 /// PRR5-ARHGAP8 (11727945_x_at) / Fold change /veh ARHGAP8 /// PRR5-ARHGAP8 (11727945_x_at) / RFU KRTAP5-7 /// NADSYN1 (11734609_at) / Fold change /veh KRTAP5-7 /// NADSYN1 (11734609_at) / RFU RASL12 (11751679_a_at) / Fold change /veh RASL12 (11751679_a_at) / RFU CDKN2B (11736163_a_at) / Fold change /veh CDKN2B (11736163_a_at) / RFU PRF1 (11729649_at) / Fold change /veh PRF1 (11729649_at) / RFU, ZNF638 /// ZNF638-IT1 / Fold change vs veh, ZNF638 /// ZNF638-IT1 / RFU, PANK3 / Fold change vs veh, PANK3 / RFU, SH3YL1 / Fold change vs veh, SH3YL1 / RFU, ZEB2 / Fold change vs veh, ZEB2 / RFU, NRIP1 / Fold change vs veh, NRIP1 / RFU, PTTG1IP / Fold change vs veh, PTTG1IP / RFU, CAPN2 / Fold change vs veh, CAPN2 / RFU, MED14 / Fold change vs veh, MED14 / RFU, SNORA58 / Fold change vs veh, SNORA58 / RFU, C1orf63 / Fold change vs veh, C1orf63 / RFU, LRRFIP1 / Fold change vs veh, LRRFIP1 / RFU, NDUFAF7 / Fold change vs veh, NDUFAF7 / RFU, SLC12A2 / Fold change vs veh, SLC12A2 / RFU, IBTK / Fold change vs veh, IBTK / RFU, ESF1 / Fold change vs veh, ESF1 / Fold change vs veh, TMEM50B / RFU, TAOK1 / Fold change vs veh, TAOK1 / RFU, ACBD3 / Fold change vs veh, ACBD3 / RFU, TMA16 / Fold change vs veh, TMA16 / RFU, RWDD3 / Fold change vs veh, RWDD3 / RFU, BCAT1 / Fold change vs veh, BCAT1 / RFU, EDEM3 / Fold change vs veh, EDEM3 / RFU, TMEM33 / Fold change vs veh, TMEM33 / RFU, WDR75 / Fold change vs veh, WDR75 / RFU, AHCTF1 / Fold change vs veh, AHCTF1 / RFU, TFRC / Fold change vs veh, TFRC / RFU, ZDHHC17 / Fold change vs veh, ZDHHC17 / RFU, NOM1 / Fold change vs veh, NOM1 / RFU, ARL8B / Fold change vs veh, ARL8B / RFU, ZBTB11 / Fold change vs veh, ZBTB11 / RFU, TAMM41 / Fold change vs veh, TAMM41 / RFU, KIAA1704 /// LOC100996395 / Fold change vs veh, KIAA1704 /// LOC100996395 / RFU, ING1 / Fold change vs veh, ING1 / RFU, TRMT61B / Fold change vs veh, TRMT61B / RFU, FUBP3 / Fold change vs veh, FUBP3 / RFU, TP53 / Fold change vs veh, TP53 / RFU, TNKS2 / Fold change vs veh, TNKS2 / RFU, ZFP14 / Fold change vs veh, ZFP14 / RFU, ACTR2 / Fold change vs veh, ACTR2 / RFU, PPP3R1 / Fold change vs veh, PPP3R1 / RFU, PIK3R1 / Fold change vs veh, PIK3R1 / RFU, HNRNPA1 / Fold change vs veh, HNRNPA1 / RFU, RNF170 / Fold change vs veh, RNF170 / RFU, ZNF28 / Fold change vs veh, ZNF28 / RFU, RNGTT / Fold change vs veh, RNGTT / RFU, OGT / Fold change vs veh, OGT / RFU, BRD1 / Fold change vs veh, BRD1 / RFU, MARS / Fold change vs veh, MARS / RFU, ZNF655 / Fold change vs veh, ZNF655 / RFU, FAHD1 / Fold change vs veh, FAHD1 / RFU, BDP1 / Fold change vs veh, BDP1 / RFU, LRRCC1 / Fold change vs veh, LRRCC1 / RFU, ARID1A / Fold change vs veh, ARID1A / RFU, ZNF146 / Fold change vs veh, ZNF146 / RFU, ZNF330 / Fold change vs veh, ZNF330 / RFU, GPN3 / Fold change vs veh, GPN3 / RFU, C9orf123 / Fold change vs veh, C9orf123 / RFU, N4BP2L2 / Fold change vs veh, N4BP2L2 / RFU, ARFIP1 / Fold change vs veh, ARFIP1 / RFU, FAM179B / Fold change vs veh, FAM179B / RFU, BCL10 / Fold change vs veh, BCL10 / RFU, UHRF1BP1L / Fold change vs veh, UHRF1BP1L / RFU, BET1 / Fold change vs veh, BET1 / RFU, CNOT2 / Fold change vs veh, CNOT2 / RFU, ZNF268 / Fold change vs veh, ZNF268 / Fold change vs veh, ZNF507 / RFU, DGCR2 / Fold change vs veh, DGCR2 / RFU, WDSUB1 / Fold change vs veh, WDSUB1 / Fold change vs veh, HSP90B1 /// MIR3652 / RFU, ADSS / Fold change vs veh, ADSS / RFU, GK / Fold change vs veh, GK / RFU, ZNF148 / Fold change vs veh, ZNF148 / RFU, TAF9 / Fold change vs veh, TAF9 / RFU, SLC1A5 / Fold change vs veh, SLC1A5 / RFU, SLMO2 / Fold change vs veh, SLMO2 / RFU, ABCC4 / Fold change vs veh, ABCC4 / RFU, LOC101060439 /// RAP1B / Fold change vs veh, LOC101060439 /// RAP1B / RFU, RFX7 / Fold change vs veh, RFX7 / RFU, GTPBP10 / Fold change vs veh, GTPBP10 / RFU, CNEP1R1 / Fold change vs veh, CNEP1R1 / RFU, BIVM-ERCC5 /// ERCC5 / Fold change vs veh, BIVM-ERCC5 /// ERCC5 / RFU, ILF3 / Fold change vs veh, ILF3 / RFU 11762660_at / Fold change /veh 11762660_at / RFU VCAN (11757783_s_at) / Fold change /veh VCAN (11757783_s_at) / RFU DDX43 (11728927_at) / Fold change /veh DDX43 (11728927_at) / RFU KRT8 (11758188_x_at) / Fold change /veh KRT8 (11758188_x_at) / RFU NKD1 (11759106_at) / Fold change /veh NKD1 (11759106_at) / RFU SRD5A1 (11742802_a_at) / Fold change /veh SRD5A1 (11742802_a_at) / RFU TPSAB1 /// TPSB2 (11721975_s_at) / Fold change /veh TPSAB1 /// TPSB2 (11721975_s_at) / RFU GSTM3 (11746129_a_at) / Fold change /veh GSTM3 (11746129_a_at) / RFU IL23R (11737362_x_at) / Fold change /veh IL23R (11737362_x_at) / RFU TMEM51 (11727254_a_at) / Fold change /veh TMEM51 (11727254_a_at) / RFU PIWIL2 (11732686_x_at) / Fold change /veh PIWIL2 (11732686_x_at) / RFU ORM1 (11744905_x_at) / Fold change /veh ORM1 (11744905_x_at) / RFU CCDC152 (11743942_at) / Fold change /veh CCDC152 (11743942_at) / RFU ECM1 (11717891_a_at) / Fold change /veh ECM1 (11717891_a_at) / RFU IL23R (11748794_a_at) / Fold change /veh IL23R (11748794_a_at) / RFU TNFAIP8L3 (11732012_x_at) / Fold change /veh TNFAIP8L3 (11732012_x_at) / RFU MBOAT4 (11741988_at) / Fold change /veh MBOAT4 (11741988_at) / RFU 11764193_at / Fold change /veh 11764193_at / RFU TMEM53 (11763286_at) / Fold change /veh TMEM53 (11763286_at) / RFU MAGEB2 (11727129_at) / Fold change /veh MAGEB2 (11727129_at) / RFU TMEM200A (11744735_a_at) / Fold change /veh TMEM200A (11744735_a_at) / RFU CCDC152 (11751479_a_at) / Fold change /veh CCDC152 (11751479_a_at) / RFU FAM211A (11726209_a_at) / Fold change /veh FAM211A (11726209_a_at) / RFU RGS16 (11746705_a_at) / Fold change /veh RGS16 (11746705_a_at) / RFU VCAN (11755009_s_at) / Fold change /veh VCAN (11755009_s_at) / RFU RHOB (11743442_s_at) / Fold change /veh RHOB (11743442_s_at) / RFU RGS16 (11720943_a_at) / Fold change /veh RGS16 (11720943_a_at) / RFU RGS16 (11720944_at) / Fold change /veh RGS16 (11720944_at) / RFU, VPS4B / Fold change vs veh, VPS4B / RFU, CREB1 / Fold change vs veh, CREB1 / RFU, DNAJC13 / Fold change vs veh, DNAJC13 / RFU, GNAQ / Fold change vs veh, GNAQ / RFU, CDK5R1 / Fold change vs veh, CDK5R1 / RFU, ZRANB3 / Fold change vs veh, ZRANB3 / RFU, CUL4A / Fold change vs veh, CUL4A / RFU, CCNY / Fold change vs veh, CCNY / RFU, UFL1 / Fold change vs veh, UFL1 / RFU, COG3 / Fold change vs veh, COG3 / RFU, DIAPH2 / Fold change vs veh, DIAPH2 / RFU, SKA2 / Fold change vs veh, SKA2 / RFU, AFF3 / Fold change vs veh, AFF3 / RFU, LMF1 / Fold change vs veh, LMF1 / RFU, IPO11 / Fold change vs veh, IPO11 / RFU, DFFB / Fold change vs veh, DFFB / RFU, FOXP1 / Fold change vs veh, FOXP1 / RFU, CARD8 / Fold change vs veh, CARD8 / RFU, STRN3 / Fold change vs veh, STRN3 / RFU, ADK / Fold change vs veh, ADK / RFU, RASSF2 / Fold change vs veh, RASSF2 / RFU, WIPF1 / Fold change vs veh, WIPF1 / RFU, LARP1B / Fold change vs veh, LARP1B / RFU, RASA1 / Fold change vs veh, RASA1 / RFU, RB1 / Fold change vs veh, RB1 / RFU, PPFIA1 / Fold change vs veh, PPFIA1 / RFU, MAT2A / Fold change vs veh, MAT2A / RFU, CCT5 / Fold change vs veh, CCT5 / RFU, WDR92 / Fold change vs veh, WDR92 / RFU, CUX1 / Fold change vs veh, CUX1 / RFU, TTC7A / Fold change vs veh, TTC7A / RFU, TMEM135 / Fold change vs veh, TMEM135 / RFU, DEPTOR / Fold change vs veh, DEPTOR / RFU, CPM / Fold change vs veh, CPM / RFU, DNAJB6 / Fold change vs veh, DNAJB6 / RFU, CACNA2D3 / Fold change vs veh, CACNA2D3 / RFU, DTX4 / Fold change vs veh, DTX4 / RFU, TFCP2 / Fold change vs veh, TFCP2 / RFU, GMCL1 /// GMCL1P1 / Fold change vs veh, GMCL1 /// GMCL1P1 / RFU, AEBP2 / Fold change vs veh, AEBP2 / RFU, SNHG1 /// SNORD22 /// SNORD25 /// SNORD26 /// SNORD27 /// SNORD28 /// SNORD29 /// SNORD31 / Fold change vs veh, SNHG1 /// SNORD22 /// SNORD25 /// SNORD26 /// SNORD27 /// SNORD28 /// SNORD29 /// SNORD31 / Fold change (Aza/veh), C12orf56 (ProbeSet 11735607_a_at) / Fold change (ACY-1035/veh), C12orf56 (ProbeSet 11735607_a_at) / Fold change (Aza/veh), FGFR1OP (ProbeSet 11751329_s_at) / Fold change (ACY-1035/veh), FGFR1OP (ProbeSet 11751329_s_at) / Fold change (Aza/veh), VPS36 (ProbeSet 11739960_a_at) / Fold change (ACY-1035/veh), VPS36 (ProbeSet 11739960_a_at) / RFU SYPL1 (11715823_x_at) / Fold change /veh SYPL1 (11715823_x_at) / RFU IGFBP7 (11715501_s_at) / Fold change /veh IGFBP7 (11715501_s_at) / RFU REEP3 (11722064_at) / Fold change /veh REEP3 (11722064_at) / RFU IGLL1 (11728026_x_at) / Fold change /veh IGLL1 (11728026_x_at): dose or concentration left out as unconfirmed
Conditions: ProbeSet 11760938_a_at; LIST D

Nc1ccc(-c2cccs2)cc1NC(=O)c1ccc2c(c1)cc(C1CC1)n2CCN1CCOCC1 [ACY-1035]
RFU, MAT2A: 163.17 RFU
